Reference: ChEMBL document CHEMBL3779806, “5-Carba-pterocarpens: A new scaffold with anti-HCV activity” (Eur J Med Chem, 2016)
Activity calls are given as the source filed them. The rule behind the calls is not given here.

What was measured:
[1] = test system: Hepacivirus hominis; test: Inhibition of HCV NS5B RNA dependent RNA polymerase activity infected in BHK-NS5B-FRLuc cells at 50 uM incubated for 40 hrs by dual luciferase reporter gene assay relative to control; assay type: cell-based
[2] = Cytotoxicity against human Huh7.5 cells assessed as reduction in cell viability after 48 hrs by MTS assay; assay type: cell-based, Huh-7
[3] = test system: Hepatitis C virus; test: Antiviral activity against HCV genotype 2a infected in Huh7.5-FGR-JC1-Rluc2A cells assessed as inhibition of viral RNA replication at 50 uM after 48 hrs by luciferase reporter gene assay relative to control; assay type: functional, Hepacivirus hominis
[4] = test system: Hepatitis C virus; test: Antiviral activity against HCV genotype 2a infected in Huh7.5-FGR-JC1-Rluc2A cells assessed as inhibition of viral RNA replication after 48 hrs by luciferase reporter gene assay; assay type: functional, organism-based, Hepacivirus hominis
[5] = test system: Hepacivirus hominis; test: Inhibition of recombinant HCV NS5B RNA dependent RNA polymerase activity assessed as reduction in [alpha-32P]UTP incorporation using poly(rA)-U12 as template/primer at 50 uM incubated for 1 hr by liquid scintillation counting method relative to control
[6] = Cytotoxicity against hamster BHK cells assessed as cell viability at 50 uM after 40 hrs by luciferase reporter gene assay relative to control; assay type: cell-based, Mesocricetus auratus; settings: read-out: Activity
[7] = test system: Hepatitis C virus; test: Antiviral activity against HCV genotype 1b infected in Huh7/Rep-Feo1b cells assessed as inhibition of viral RNA replication at 50 uM after 48 hrs by luciferase reporter gene assay relative to control; assay type: functional, Hepacivirus hominis; settings: Huh-7, 48 h
[8] = Selectivity index, ratio of CC50 for human Huh7.5 cells to EC50 for HCV genotype 2a infected in Huh7.5-FGR-JC1-Rluc2A cells; parameters: species or system Huh-7
[9] = test system: Hepatitis C virus; test: Antiviral activity against HCV genotype 1b infected in Huh7/Rep-Feo1b cells assessed as inhibition of viral RNA replication after 48 hrs by luciferase reporter gene assay; assay type: functional, organism-based, Hepacivirus hominis; settings: Huh-7, 48 h
[10] = Selectivity index, ratio of CC50 for human Huh7.5 cells to EC50 for HCV genotype 1b infected in Huh7/Rep-Feo1b cells; parameters: species or system Huh-7

| EC50 [4] | inhibition [5] | EC50 [9] | Structure (SMILES) | inhibition [1] | CC50 at 48 h [2] | inhibition at 50 µM [3] | viability at 40 h, 50 µM [6] | inhibition at 50 µM [7] | Ratio CC50/EC50 [8] | Ratio CC50/EC50 [10] |
| --- | --- | --- | --- | --- | --- | --- | --- | --- | --- | --- |
| 6 µM | 33.1% |  | Oc1ccc2c(c1)-c1oc3cc(O)ccc3c1CC2 | 36.1% | 157 µM | 97.8% | ≥ 80% | 49.3% | 26.1 |  |
| 1.9 µM | inactive | 12.3 µM | Oc1ccc2c(c1)CCc1c-2oc2cc(O)ccc12 | inactive | 84.5 µM | 99.6% | ≥ 80% | 98.1% | 44.4 | 6.8 |
| 15.3 µM | inactive | 40.7 µM | c1ccc2c(c1)CCc1c-2oc2ccccc12 | inactive | > 200 µM | 86.5% | ≥ 80% | 50.7% | >13 | >4.9 |
| 2.3 µM | 38.5% | 27.9 µM | Oc1ccc2c(c1)-c1oc3ccccc3c1CC2 | 39.4% | 96.8 µM | 98.4% | ≥ 80% | 95.1% | 42.1 | 3.5 |
| 2.4 µM | 38% | 5.9 µM | Oc1ccc2c3c(oc2c1)-c1cccc(O)c1CC3 | 33.3% | 59.5 µM | 99.7% | ≥ 80% | 96.7% | 24.7 | 10.1 |
| 1.5 µM | 36.2% | 19.9 µM | COc1ccc2c(c1)CCc1c-2oc2cc(O)ccc12 | 37% | 106 µM | 99.8% | ≥ 80% | 97.9% | 70.6 | 5.3 |
| 5.7 µM | inactive | 13.9 µM | Oc1ccc2c3c(oc2c1)-c1ccccc1CC3 | inactive | 99.9 µM | 97.2% | ≥ 80% | 90.1% | 15.8 | 7.2 |
| 6.1 µM | inactive | 5.5 µM | Oc1ccc2c3c(oc2c1)-c1cc(O)c(O)cc1CC3 | inactive | 115 µM | 96.9% | ≥ 80% | 98.6% | 18.8 | 20.9 |
